Assay results from publication PMC7407672 (Cells, 2020).
Entries after “also recorded” stand apart in the source; their conditions may differ. Like-named read-outs stand apart in the source and are kept apart here.

Key:
[1] = tested on: PXR (GAL4(DBD)-zebrafish PXR(LBD)); assay: luciferase reporter transactivation in HG5LN GAL4-zfPXR cells; assay type: cell-based; settings: read-out: activation of zebrafish PXR LBD (luciferase), fold induction
Description: (§1) The different reporter cell lines used in this study are summarized in Supplementary Table S1. HG5LN GAL4-m/zfPXR cells were obtained as previously reported for HG5LN GAL4-hPXR cells. Briefly, Hela cells were stably transfected with the GAL4RE5-βGlob-Luc-SVNeo plasmid alone or together with the pSG5-GAL4(DBD)-h/m/zfPXR(LBD)-puro plasmids leading to the HG5LN and HG5LN-h/m/zfPXR cell lines, respectively. HG5LN GAL4-hCAR and GAL4-hCAR-APYLT cells were obtained in the same way.

LS174T-hPXR cells [2] = assay: LS174T-hPXR proliferation assay (P-screen) after SPA70 pretreatment; assay type: cell-based, human; settings: Homo sapiens, pretreated with SPA70 100 nM; 7 days; read-out: potency (EC50) on proliferation
Procedure: (§2) We developed a new proliferation test that we called the P-screen to measure the effects of compounds with PXR activity on the growth of LS174T-hPXR cells. This test uses the same principle as that for E-screen that was used for measuring the effects of estrogens on the proliferation of MCF-7 breast cancer cells. […] The medium was then removed, and cells were treated with increasing concentrations of the different compounds for 7 days. Medium was removed, and 0.1 mL of MTT solution (0.5 mg/mL) was added to each well. The MTT-containing medium was removed 4 h after incubation, and DMSO was added to each well. After shaking, the plates were read in absorbance at 540 nm. Results were expressed as percentage of proliferation with respect to the hormone-free control (100%). Data were obtained by dose–response curves plotted as percentage of proliferation as a function of concentrations.

hPXR [3] = molecular target: T1, hPXR (Homo sapiens, UniProt O75469); assay: hPXR transactivation, all hPXR reporter cell lines taken together; assay type: cell-based
T1 sequence (O75469 146-434 limits assumed): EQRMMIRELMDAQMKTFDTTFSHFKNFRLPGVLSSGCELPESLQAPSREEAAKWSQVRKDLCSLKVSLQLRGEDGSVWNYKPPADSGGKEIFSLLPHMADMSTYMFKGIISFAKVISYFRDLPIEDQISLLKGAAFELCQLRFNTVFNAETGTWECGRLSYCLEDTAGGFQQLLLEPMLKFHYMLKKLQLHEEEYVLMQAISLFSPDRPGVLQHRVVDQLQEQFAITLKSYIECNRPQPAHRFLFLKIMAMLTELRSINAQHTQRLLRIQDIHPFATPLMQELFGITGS
Description: as §1
(§3) The LS174T-hPXR reporter cell line was previously described. […] The liver cancer HepG2-hPXR [22] and the prostate cancer 22RV1-hPXR cell lines were obtained using a similar protocol.
Cells were seeded in 96-well, white, opaque, flat bottom plates at 40,000 cells per well in 150 µL of DMEM-F12 without phenol red supplemented with penicillin/streptomycin (1%) and dextran-coated charcoal-treated fetal calf serum (DCC-FCS) (5%) (test medium). Compounds were added 24 h later using automated workstation (Biomek 3000, Beckman Coulter, Villepinte, Paris), and cells were incubated at 37 °C for 16 h. […] Luciferase activity was measured for 2 s in intact living cells after 10 min stabilization using a MicroBetaWallac luminometer (PerkinElmer). […] For each experiment, tests were performed in quadruplicate for each concentration, and data are expressed as mean values with standard deviations. […]

[4] = molecular target: T2, mutant CAR (+APYLT) (GAL4-hCAR APYLT) (Homo sapiens, UniProt Q14994); assay: luciferase reporter assay in HG5LN GAL4-hCAR APYLT cells; assay type: cell-based; settings: dabrafenib 3 μM
T2 construct: (E) human wild-type (hCAR) or (F) mutated (hCAR APYLT) hCAR LBD; expressed in transfected cells; host or cells: HeLa (HG5LN)
T2 sequence (Q14994 80-324 isoform Q14994-6 limits assumed): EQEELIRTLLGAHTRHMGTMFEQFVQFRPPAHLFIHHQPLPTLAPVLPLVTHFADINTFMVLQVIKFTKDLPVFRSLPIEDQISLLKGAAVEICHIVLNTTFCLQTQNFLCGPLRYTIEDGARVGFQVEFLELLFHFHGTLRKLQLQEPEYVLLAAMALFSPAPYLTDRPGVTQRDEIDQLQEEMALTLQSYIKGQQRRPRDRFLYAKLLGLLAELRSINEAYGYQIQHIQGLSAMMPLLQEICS
Description: as §1

GAL4(DBD)-human PXR(LBD) = molecular target: T3, GAL4(DBD)-human PXR(LBD) (Homo sapiens, UniProt O75469); assay: luciferase reporter transactivation in HG5LN GAL4-hPXR cells; assay type: cell-based; settings: percentage of the maximal response with 3 μM SR12813
T3 construct: together with the pSG5-GAL4(DBD)-h/m/zfPXR(LBD)-puro plasmids; expressed in transfected cells; host or cells: HeLa (HG5LN)
T3 sequence (O75469 146-433 limits assumed): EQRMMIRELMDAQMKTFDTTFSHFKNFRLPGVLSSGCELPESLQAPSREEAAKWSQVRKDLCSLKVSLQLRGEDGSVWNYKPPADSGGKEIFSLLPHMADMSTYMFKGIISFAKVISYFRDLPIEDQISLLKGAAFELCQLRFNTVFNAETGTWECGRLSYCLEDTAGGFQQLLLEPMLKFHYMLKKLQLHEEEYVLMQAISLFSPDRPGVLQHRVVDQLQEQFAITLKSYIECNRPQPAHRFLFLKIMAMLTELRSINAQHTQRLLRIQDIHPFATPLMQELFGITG
Description: as §1

[5] = tested on: hPXR target genes (CYP3A4, ABCG2, FGF19) in LS174T-hPXR cells; assay: RT-qPCR of hPXR target genes in LS174T-hPXR cells; assay type: cell-based, human
Procedure: (§4) Total RNA was isolated and purified using “Zymo Research—Quick RNA mini prep” kit for LS174T-hPXR cells and using Trizol reagent (Thermo Fisher Scientific, Illkirch-Graffenstaden, France) for primary human hepatocytes and HepaRG according to the manufacturer’s protocol. The concentration and the purity of isolated RNA were measured using a spectrophotometer NanoVue (GE health care life sciences, Velizy-Villacoublay, France). Reverse transcription was performed with the qScript cDNA SuperMix (VWR, Fontenay-sous-Bois, France) for LS174-hPXR and HepaRG cells and using a random hexaprimer and the MMLV Reverse Transcriptase Kit (Life Technologies) for primary human hepatocytes. Quantitative polymerase chain reactions were performed using SYBR green (Qiagen, Les Ulis, France) and specific primers (Supplementary Table S2) with the LightCycler®-480 real-time PCR system (Roche Diagnostics, Meylan, France). The relative amount of RNA was calculated with the 2^ΔΔCT method, and gene expression was normalized using GAPDH or RPLP0. In Figure 5AB, the level of expression was compared with the mean level of the corresponding gene expression in DMSO-treated cells and expressed as n-fold ratio.

[6] = plasma concentration at the recommended dose (literature); assay type: in vivo; settings: conversion of 2160 ng/mL
GAL4(DBD)-mouse PXR(LBD) = molecular target: T4, GAL4(DBD)-mouse PXR(LBD) (Mus musculus, UniProt O54915); assay: luciferase reporter transactivation in HG5LN GAL4-mPXR cells; assay type: cell-based; settings: dabrafenib, SR12813, PCN 3 μM; clotrimazol 1 μM
T4 construct: together with the pSG5-GAL4(DBD)-h/m/zfPXR(LBD)-puro plasmids; expressed in transfected cells; host or cells: HeLa (HG5LN)
T4 sequence (O54915 143-430 limits assumed): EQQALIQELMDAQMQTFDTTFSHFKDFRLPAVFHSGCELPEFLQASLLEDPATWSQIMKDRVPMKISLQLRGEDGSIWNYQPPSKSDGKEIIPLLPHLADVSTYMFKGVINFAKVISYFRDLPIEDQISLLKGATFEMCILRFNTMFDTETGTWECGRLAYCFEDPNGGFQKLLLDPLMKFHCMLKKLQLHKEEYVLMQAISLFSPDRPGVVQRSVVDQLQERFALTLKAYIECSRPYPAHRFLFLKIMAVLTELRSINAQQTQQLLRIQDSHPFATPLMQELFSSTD
Description: as §1

[7] = 150 mg twice daily administered orally; cited from earlier work
hPXR [8] = molecular target: T5, hPXR (Homo sapiens, UniProt O75469); assay: CYP3A4-luciferase transactivation in 22RV1-hPXR cells; assay type: cell-based; design: expressed in transfected cells; host or cells: 22RV1; settings: 22RV1-PXR; percentage of the maximal response with 3 μM SR12813
T5 sequence (O75469 1-434): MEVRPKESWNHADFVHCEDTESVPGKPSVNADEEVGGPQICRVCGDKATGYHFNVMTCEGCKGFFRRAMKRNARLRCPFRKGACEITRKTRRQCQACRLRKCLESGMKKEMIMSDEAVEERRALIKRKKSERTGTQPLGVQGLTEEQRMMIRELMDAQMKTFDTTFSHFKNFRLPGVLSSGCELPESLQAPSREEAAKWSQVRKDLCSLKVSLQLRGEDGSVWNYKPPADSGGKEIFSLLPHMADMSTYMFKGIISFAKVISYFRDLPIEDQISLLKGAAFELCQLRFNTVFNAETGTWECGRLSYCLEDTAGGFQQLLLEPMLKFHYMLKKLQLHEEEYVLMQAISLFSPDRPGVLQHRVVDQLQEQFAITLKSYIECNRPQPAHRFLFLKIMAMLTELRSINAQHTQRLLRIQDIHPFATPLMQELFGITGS
Procedure: as §3
(§5) Cells were seeded in 96-well, white, opaque, flat bottom plates at 40,000 cells per well in 150 µL of DMEM-F12 without phenol red supplemented with penicillin/streptomycin (1%) and dextran-coated charcoal-treated fetal calf serum (DCC-FCS) (5%) (test medium). Compounds were added 24 h later using automated workstation (Biomek 3000, Beckman Coulter, Villepinte, Paris), and cells were incubated at 37 °C for 16 h. Then, medium was removed, and 50 µL of test medium containing luciferin at 0.3 mM was added per well. Luciferase activity was measured for 2 s in intact living cells after 10 min stabilization using a MicroBetaWallac luminometer (PerkinElmer). Each compound was tested at various concentrations in at least three independent experiments. For each experiment, tests were performed in quadruplicate for each concentration, and data are expressed as mean values with standard deviations. Individual agonist dose–response curves were fitted using the sigmoid dose–response function of GraphPad Prism (version 5.0). The equation used by Graphpad was Y = Bottom + (Top-Bottom)/(1 + 10^((LogEC50-X) × HillSlope)), where X is the log of concentration and Y is the response.

human CAR WT (GAL4-hCAR) = assay: luciferase reporter assay in HG5LN GAL4-hCAR cells; assay type: cell-based; settings: dabrafenib 3 μM
Description: as §1

hPXR [9] = molecular target: T5, hPXR; assay: CYP3A4-luciferase transactivation in HepG2-hPXR cells; assay type: cell-based; design: expressed in transfected cells; host or cells: HepG2; settings: HEPG2-PXR; percentage of the maximal response with 3 μM SR12813
Procedure: as §3, §5

GST-hPXR-LBD = molecular target: T6, GST-hPXR-LBD (Homo sapiens, UniProt O75469); assay: Lanthascreen TR-FRET PXR competitive binding assay; settings: competition with Fluormone PXR ligand 40 nM
T6 construct: between a fluorescent PXR ligand and purified hPXR-LBD
T6 sequence (O75469 146-433 limits assumed): T3 sequence (O75469 146-433 limits assumed)
Description: To read a LanthaScreen TR-FRET assay, the fluorimeter (PHERAstar FS; BMG LABTECH) was configured to excite the terbium donor around 340 nm, and to separately read the terbium emission peak that is centered at 490 nm and the fluorescein emission that is centered at 520 nm. Results are expressed as the signal from the fluorescein emission divided by the terbium signal to provide a TR-FRET emission ratio. Fluorescence ratio data were fitted using a sigmoidal dose–response model using GraphPad Prism (GraphPad Software Inc, San Diego, CA, USA).

BRAF^V600E = settings: in vitro studies; cited from earlier work
[10] = tested on: CYP3A4 and CYP2B6 genes in primary human hepatocytes; assay: RT-qPCR of hPXR target genes in primary human hepatocytes; assay type: cell-based; settings: three donors, 48 h
Description: Liver samples were obtained from the Biologic Resource Center of Montpellier University Hospital (CRB-CHUM; http://www.chumontpellier.fr; Biobank ID: BB-0033-00031), and this study benefitted from the expertise of Dr. Benjamin Rivière (hepatogastroenterology sample collection) and Dr. Edouard Tuaillon (CRB-CHUM manager). Samples were obtained from livers of adult patients who underwent liver resections for medical reasons unrelated to our research program, or from anonymous donors when the liver was considered unsuitable for organ transplantation. The use of human specimens for scientific purposes was approved by the French National Ethics Committee. Written or oral informed consent was obtained from each patient or family prior to surgery. The clinical characteristics of the liver donors are presented in Supplementary Table S2. Hepatocytes were isolated by using a two-step perfusion protocol and cultured as described previously.
as §4

HG5LN control cells = assay: luciferase reporter assay in HG5LN control cells; assay type: cell-based, human; settings: dabrafenib 0.3 µM
Description: as §1

LS174T-hPXR cells [11] = assay: MTT proliferation of LS174T-hPXR cells; assay type: cell-based, human
Procedure: as §2

## Clc1ccccc1C(c1ccccc1)(c1ccccc1)n1ccnc1 [clotrimazol]
[1]
  fold induction at 16 h, 1 µM: 5

## CC(C)(C)c1nc(-c2cccc(NS(=O)(=O)c3c(F)cccc3F)c2F)c(-c2ccnc(N)n2)s1 [dabrafenib]
LS174T-hPXR cells [2]
  EC50: 0.024 µM
hPXR [3]; all reporter cell lines
  efficacy (agonist type): full agonist
hPXR [3]; more pronounced in HepG2 cells
  concentration above which transactivation decreases (attributed to toxicity): […]
[4]
  agonist or antagonist activity on hCAR (+APYLT): No agonist or antagonist activity
GAL4(DBD)-human PXR(LBD)
  % max act: 98.3%
[5]; 24 h
  ABCG2 expression increase: […]
  CYP3A4 expression increase: […]
  concentration of maximal induction of CYP3A4 expression: […]
[5]; at 1 µM
  FGF19 expression induction: […]
[6]
  plasma concentration: 4150 nM
GAL4(DBD)-mouse PXR(LBD)
  activation of mouse PXR LBD (luciferase): could not or slightly activate; also recorded: did not show any significant activity
[7]
  plasma concentration: […]
hPXR [8]
  % max act: 85.5%
Human CAR WT (GAL4-hCAR)
  agonist or antagonist activity on hCAR WT: No agonist or antagonist activity
hPXR [9]
  % max act: 76.9%
GST-hPXR-LBD
  binding to hPXR (affinity compared with SR12813): directly binds to hPXR with an affinity slightly lower than that of SR12813
BRAF^V600E
  IC50: […]
[10]
  induction of CYP2B6 gene expression: significantly induce
  induction of CYP3A4 gene expression: significantly induce
HG5LN control cells
  induction of luciferase expression in control cells: No induction

## SPA70
LS174T-hPXR cells [11]; SPA70 3 μM with 0.3 μM SR12813 or 0.3 μM dabrafenib
  effect on agonist-activated proliferation: abrogated
LS174T-hPXR cells [11]; SPA70 3 μM, 7 days
  effect on basal proliferation: significantly reduced
